Results: patent publication US4666890A, “Peptide, process for preparation thereof and use thereof” (priority 1978, dated 1987)

Legend:
Mice (DDY male 5-6 W) = test: Blood stream clearance of carbon; format: in vivo
Method: 1. Carbon suspension. Rotoring drawing ink (170 mg carbon/ml.) was diluted to 1/5 of the original concentration in saline containing 1% gelatin.
2. 0.1% aqueous sodium carbonate solution.
Mice (DDY male 5-6 W) were injected via the tail vein with a dose of 0.01 ml/g body weight of carbon. Blood samples were taken by means of a pointed capillary pippet calibrated to hold a 50 μl and previously washed in heparin. This was plunged into the retrooribital venous sinus at the nasal angle of the eye. The samples were removed at 3 and 6 min. The blood was immediately discharged into 3.0 ml. of the sodium carbonate solution. This hemolyszed the blood and allowed the quantitation of carbon. The samples were then read in a spectrophotometer at 660 nm, the log concentration being obtained from a previously determined standard curve. The clearance value K may be determined by plotting log carbon concentration against time according to the following relationship; [formula] in which T1 and T2 represent the time in min when the sample were withdrawn and C1 and C2 represent the concentrations of carbon in the blood at the time T1 and T2, respectively.
The aqueous solution of the test compound as given was administered subcutaneously to mice. Twenty four hours later, blood stream clearance of carbon was measured. K value obtained with treated mice was compared with that of control mice.

mice = test: Acute toxicity in mice; format: in vivo; conditions: 1 g/kg (i.v.)
Description: ACUTE TOXICITY IN MICE of FR-900156
1 g/kg (i.v.): no toxicity.

Structure (SMILES) | Ktreated /Kcontrol (Mice (DDY male 5-6 W); dose 1 mg/mouse) | Ktreated /Kcontrol (Mice (DDY male 5-6 W); dose 10 mg/mouse) | Acute toxicity in mice (mice)
c1ccc([C@H]2CN3CCSC3=N2)cc1 [Levamisol] | 0.5 | death | –
C[C@H](NC(=O)[C@@H](C)O)C(=O)N[C@H](CCC(=O)N[C@@H](CCC[C@@H](N)C(=O)O)C(=O)NCC(=O)O)C(=O)O [FR-900156 substance] | – | – | no toxicity
